In series [1] the test system is TXNIP. In words: Inhibition of glucose-induced endogenous TXNIP expression in INS-1 cells (qRT-PCR). The series is classed as cell-based, Rat. Particulars: Rattus norvegicus, INS1, 24 h, 25 mM glucose; for inhibition at 1.5 µM: 1.5 μM compound; for inhibition at 12.5 µM: 12.5 μM compound. As for the experimental part: The Rat INS-1 cell line was obtained from UAB and maintained in RPMI-1640 (Invitrogen #11875) supplemented with 10% fetal bovine serum (FBS), 100 U/ml penicillin and […] streptomycin, 10 mM HEPES, 1 mM Sodium Pyruvate, 50 μM 2-Mercaptoethanol, and 11.1 mM Glucose in a humidified incubator with a 5% C02 atmosphere at 37° C. 4×10^4 cells per well were seeded to 96-well plate and incubated at 37° C. overnight. A subset of the cells were then cultured in medium with 5 mM Glucose for 24 hrs and then treated in medium with 25 mM glucose with or without compounds to be tested for another 24 hrs.
For the primary high throughput screening (HTS) assay, stably transfected, monoclonal INS-1 cells were split using Trypsin (2 ml per T75 flask) and seeded at a density of 10^4/well in a 384-well plate and incubated overnight at low, 5 mM glucose. The next day, the medium was changed to high glucose (25 mM) or high glucose plus the small molecules to be tested and luciferase assays were performed 24 h later. […] For secondary screens, total RNA was extracted from 96-well cultured cells using RNeasy 96 kit (Qiagen #74181) following the manufacturer's protocol using spin technology. Then a one-step qRT-PCR amplification was performed using QuantiFast SYBR Green RT-PCR kit (Qiagen #204154) and was carried out in a 10 μl reaction which consisted of 2 μl RNA, 0.5 μM each of primers (Rat TXNIP 5′ primer: […] (SEQ ID NO:1) and Rat TXNIP 3′ primer: […] (SEQ ID NO:2); Or Rat 18S rRNA 5′ primer: […] (SEQ ID NO:3) and Rat 18S rRNA 3′ primer: […]) (SEQ ID NO:4), 5 μl 2×SYBR Green Master Mix, 0.1 μl 10× QuantiFast RT Mix. The SYBR Green assay was performed using a LightCycler 480 II (Roche Applied Science) with an initial incubation at 50° C. for 10 min for RT followed by denaturation at 95° C. for 5 min. Forty cycles of amplification were performed using a thermal cycling profile of 95° C. for 10s, 60° C. for 30 s. Subsequently, a melting curve was recorded by holding at 95° C. for 60 s, cooling to 60° C. for 60 s, and then heating at 0.11° C./s up to 95° C. The data was collected and analyzed using the LightCycler 480 Software Release 1.5.0 SP3. The relative amount of TXNIP mRNA was normalized to 18 s rRNA level as a housekeeping gene, and the data was analyzed according to the 2^−ΔΔCT method (1). The transformed data was expressed as % inhibition and compound IC50 calculated by a 4-parameter logistic fit of the data using GraphPad Prism 7.
(In general: In qPCR the cycle at which signal appears reflects the starting amount.)

Series [2] can be described thus: INS-1 cell viability (Cell Titer-Glo, ATP). Type of series: cell-based, Rat. Particulars: rat, INS-1 cells, 72 hrs treatment. As for the experimental part:
INS-1 cell viability was determined based on quantification of ATP using Cell Titer-Glo Luminescent Cell Viability Assay kit (Promega #G7572), which indicates the presence of metabolically active cells. Briefly, INS-1 cells were seeded into 96-well plates at a cell density of 4.5×10^4 and 3.5×10^4 cells per well and incubated overnight at 37° C. with 5% CO2. On the following day, cells were treated with compounds for 24 hrs and 72 hrs respectively. Cell Titer-Glo reagent was added to the cells and Luminescence was acquired on Synergy 4 Reader ([…]).
A general note: In ATP-based viability assays light output follows the ATP content of the culture.

Series [3] deals with TXNIP. In words: TXNIP expression in isolated primary human islets. Type of series: cell-based. As for the experimental part: (§1) Isolated primary human islets were cultured in the presence or absence of compound #11 (Table 1).
Another series has as its system primary human islets. In words: Cytokine-induced β-cell apoptosis in primary human islets. Type of series: cell-based. The following applies: Type 1 diabetes associated cytokines. As for the experimental part:
as §1

This note sets out measurements from patent publication US11524010B2, “Substituted quinazoline sulfonamides as thioredoxin interacting protein (TXNIP) inhibitors” (SOUTHERN RESEARCH INSTITUTE, priority 2017, dated 2022).

“Also recorded” adds a separate entry of the source.

With `CS(=O)(=O)NCC1CCCN(c2ncnc3ccc(C(F)(F)F)cc23)C1` (stereo not drawn) [Compound 11, N-((1-(6-(trifluoromethyl)quinazolin-4-yl)piperidin-3-yl)methyl)methanesulfonamide], in the series with TXNIP [1], testing at 1.5 µM gave an inhibition of 45% and the inhibition (usually the change of the read-out against control, counted positive when it falls) at 12.5 µM was found to be 53%. Further, the cytotoxic concentration (CC50) (as a rule, the concentration giving 50% cytotoxicity) at 72 h in series [2] stood at 56 µM. Besides, the “pro-inflammatory cytokine-induced TXNIP expression” value in the series on TXNIP [3] (Type 1 diabetes associated cytokines) was “protected”. Moreover, in the series with TXNIP [3] (high glucose, vs DMSO control), the “glucose-induced TXNIP expression” value is “inhibition of TXNIP expression; also recorded: specifically inhibited”. In addition, in the series with primary human islets, the “cytokine-induced β-cell apoptosis / death” value was “inhibits; also recorded: protected”.

Consider `N#Cc1cc2ncnc(N3CCCC(CNS(=O)(=O)C(F)(F)F)C3)c2cc1F` (stereo not drawn) [Compound 53, N-((1-(7-cyano-6-fluoroquinazolin-4-yl)piperidin-3-yl)methyl)-1,1,1-trifluoromethanesulfonamide], for which, in the series on TXNIP [1], the inhibition at 1.5 µM came out at 7% and at 12.5 µM the inhibition was 24%. Moreover, the CC50 at 72 h in series [2] is greater than 100 µM.

As to `CS(=O)(=O)NCC1CN(c2ncnc3cc(C(N)=O)c(F)cc23)CCO1` (stereo not drawn) [Compound 47, 6-fluoro-4-(2-(methylsulfonamidomethyl)morpholino)quinazoline-7-carboxamide], in the series on TXNIP [1], testing at 1.5 µM gave an inhibition of 5% and testing at 12.5 µM gave an inhibition of 7%. In series [2], the CC50 at 72 h was greater than 100 µM.

In the series on TXNIP [1], `O=S(=O)(NCC1CCCN(c2ncnc3ccc(C(F)(F)F)cc23)C1)C1CC1` (stereo not drawn) [Compound 57, N-((1-(6-(trifluoromethyl)quinazolin-4-yl)piperidin-3-yl)methyl)cyclopropanesulfonamide] had an inhibition at 1.5 µM of 33% and an inhibition at 12.5 µM of 67%. In series [2], the CC50 at 72 h was determined as 43 µM.

For the compound `CS(=O)(=O)NCC1CCCN(c2ncnc3ccc(NC(=O)c4ccccn4)cc23)C1` (stereo not drawn) [Compound 28, N-(4-(3-(methylsulfonamidomethyl)piperidin-1-yl)quinazolin-6-yl)picolinamide], in the series on TXNIP [1], the inhibition at 1.5 µM came out at 4% and the inhibition at 12.5 µM amounted to 5%. In addition, in series [2], the CC50 at 72 h was greater than 100 µM.

`CS(=O)(=O)NCC1(O)CCCN(c2ncnc3cc(F)c(C#N)cc23)C1` (stereo not drawn) [Compound 49, N-((1-(6-cyano-7-fluoroquinazolin-4-yl)-3-hydroxypiperidin-3-yl)methyl)methanesulfonamide]: in the series on TXNIP [1], the inhibition at 1.5 µM amounted to 2% and testing at 12.5 µM gave an inhibition of 2%. Moreover, the CC50 at 72 h in series [2] is greater than 100 µM.

Turning to `CS(=O)(=O)NC1CCCN(c2ncnc3cc(F)c(C(F)(F)F)cc23)C1` (stereo not drawn) [Compound 39, N-(1-(7-fluoro-6-(trifluoromethyl)quinazolin-4-yl)piperidin-3-yl)methanesulfonamide], in the series with TXNIP [1], testing at 1.5 µM gave an inhibition of 7% and the inhibition at 12.5 µM is 28%. Also, the CC50 at 72 h in series [2] was greater than 100 µM.

Regarding `O=S(=O)(NCC1CCCN(c2ncnc3ccc(F)cc23)C1)N1CCOCC1` (stereo not drawn) [Compound 60, N-((1-(6-fluoroquinazolin-4-yl)piperidin-3-yl)methyl)morpholine-4-sulfonamide], in the series on TXNIP [1], at 1.5 µM the inhibition was 32% and the inhibition at 12.5 µM amounted to 56%. For the same compound, in series [2], the CC50 at 72 h is 16 µM.

For the compound `CC1(CNS(C)(=O)=O)CCCN(c2ncnc3cc(F)c(C#N)cc23)C1` (stereo not drawn) [Compound 48], in the series with TXNIP [1], at 1.5 µM the inhibition was 3% and the inhibition at 12.5 µM is 26%. The CC50 at 72 h in series [2] is greater than 100 µM.

`CC(C)N(CC1CCCN(c2ncnc3ccccc23)C1)S(C)(=O)=O` (stereo not drawn) [Compound 40, N-isopropyl-N-((1-(quinazolin-4-yl)piperidin-3-yl)methyl)methanesulfonamide]: in the series on TXNIP [1], the inhibition at 1.5 µM came to 14% and the inhibition at 12.5 µM came out at 46%. Moreover, the CC50 at 72 h in series [2] is 70 µM.

In the series on TXNIP [1], `CS(=O)(=O)NCC1CCCN(c2nc(-c3ccccc3)nc3ccccc23)C1` (stereo not drawn) [Compound 9, N-((1-(2-phenylquinazolin-4-yl)piperidin-3-yl)methyl)methanesulfonamide] came in with an inhibition at 1.5 µM of 0% and an inhibition at 12.5 µM of 10%. Further, in series [2], the CC50 at 72 h was determined as 71 µM.

In the series with TXNIP [1], `COc1cc2ncnc(N3CCCC(CNS(C)(=O)=O)C3)c2cc1OC` (stereo not drawn) [Compound 8, N-((1-(6,7-dimethoxyquinazolin-4-yl)piperidin-3-yl)methyl)methanesulfonamide] registered an inhibition at 1.5 µM of 0% and an inhibition at 12.5 µM of 7%. Further, in series [2], the CC50 at 72 h was greater than 100 µM.

In the series with TXNIP [1], `CS(=O)(=O)NCC1CCCN(c2ncnc3cc(F)c(C#N)cc23)C1` (stereo not drawn) [Compound 29, N-((1-(6-cyano-7-fluoroquinazolin-4-yl)piperidin-3-yl)methyl)methanesulfonamide] came in with an inhibition at 1.5 µM of 39% and an inhibition at 12.5 µM of 66%. In addition, the CC50 at 72 h in series [2] is greater than 100 µM.

In the series with TXNIP [1], `CS(=O)(=O)NCC1CCCN(c2ncnc3ccc(-c4ncco4)cc23)C1` (stereo not drawn) [Compound 26, N-((1-(6-(oxazol-2-yl)quinazolin-4-yl)piperidin-3-yl)methyl)methanesulfonamide] yielded an inhibition at 1.5 µM of 2% and an inhibition at 12.5 µM of 28%. Besides, the CC50 at 72 h in series [2] is greater than 100 µM.

In the series on TXNIP [1], `CS(=O)(=O)NCC1CCCN(c2nc(O)nc3ccc(C(F)(F)F)cc23)C1` (stereo not drawn) [Compound 62, N-((1-(2-hydroxy-6-(trifluoromethyl)quinazolin-4-yl)piperidin-3-yl)methyl)methanesulfonamide] gave an inhibition at 1.5 µM of 20% and an inhibition at 12.5 µM of 20%. The CC50 at 72 h in series [2] is greater than 100 µM.

As for `CS(=O)(=O)NCC1CCCCN1c1ncnc2cc(C#N)c(F)cc12` (stereo not drawn) [Compound 43, N-((1-(7-cyano-6-fluoroquinazolin-4-yl)piperidin-2-yl)methyl)methane-sulfonamide], in the series with TXNIP [1], at 1.5 µM the inhibition was 0% and the inhibition at 12.5 µM stood at 16%. In addition, the CC50 at 72 h in series [2] is greater than 100 µM.

On to `CS(=O)(=O)NC1CCCN(c2ncnc3ccc(F)cc23)C1` (stereo not drawn) [Compound 34, N-(1-(6-fluoroquinazolin-4-yl)piperidin-3-yl)methanesulfonamide], for which, in the series with TXNIP [1], the inhibition at 1.5 µM was determined as 56% and at 12.5 µM the inhibition was 61%. Moreover, the CC50 at 72 h in series [2] was found to be 33 µM.

`CS(=O)(=O)NCC1CCCN(c2ncnc3ccc(F)cc23)C1` (stereo not drawn) [Compound 1, N-((1-(6-fluoroquinazolin-4-yl)piperidin-3-yl)methyl)methanesulfonamide]: in the series on TXNIP [1], the inhibition at 1.5 µM is 44% and at 12.5 µM the inhibition was 54%. Moreover, the CC50 at 72 h in series [2] was greater than 100 µM.
